Laboratory results from the NIST ThermoML archive (doi:10.1021/je100231g).
Where “and” joins values, the source holds several entries; their conditions need not be identical. Equal entries are not always repeated. Structures can show the parent of a compound that is named as a salt.

Details: Liquid, Gas Saturation Method

CCCOC(=O)C(=O)OCCC [di-n-propyl oxalate]
Details	vapor or sublimation pressure [kPa]
293.6 K	0.00943
298.5 K	0.0139
301.4 K	0.0175
306.4 K	0.0255
308.4 K	0.0304
311.4 K	0.0362
313.4 K	0.0413
316.3 K	0.052
318.6 K	0.0626
321.4 K	0.0741
323.3 K	0.0903
326.3 K	0.1085
328.3 K	0.1248
330.4 K	0.1423
333.5 K	0.1801

CCOC(=O)CCCC(=O)OCC [diethyl glutarate]
Details	vapor or sublimation pressure [kPa]
298.3 K	0.00352
303.4 K	0.00575
308.6 K	0.00877
311.2 K	0.0108
313.5 K	0.0134
316.2 K	0.0161
318.2 K	0.0185
318.5 K	0.02
322.2 K	0.0254
323.3 K	0.0277
328.2 K	0.0405
333.2 K	0.0601
338.2 K	0.0874
343.2 K	0.1236
347.9 K	0.1725

CCCCOC(=O)CCCC(=O)OCCCC [dibutyl pentanedioate]
Details	vapor or sublimation pressure
317.5 K	0.00064 kPa
318.3 K	0.0007 kPa
322.4 K	0.00103 kPa
323.4 K	0.00114 kPa and 0.00113 kPa
325.4 K	0.00132 kPa
326.5 K	0.00145 kPa
328.4 K	0.00179 kPa and 0.00173 kPa
330.6 K	0.0021 kPa
331.5 K	0.00229 kPa
333.5 K	0.00273 kPa
334.6 K	0.00306 kPa
334.7 K	0.00298 kPa
337.6 K	0.00375 kPa
338.6 K	0.00404 kPa
340.5 K	0.00475 kPa
343.3 K	0.006 kPa
346.6 K	0.00782 kPa
349.6 K	0.00973 kPa
350.3 K	0.0103 kPa
352.5 K	0.0121 kPa
354.7 K	0.0145 kPa
357.5 K	0.0177 kPa
360.6 K	0.0213 kPa
363.4 K	0.026 kPa
366.4 K	0.0318 kPa
369.5 K	0.0403 kPa

CCCOC(=O)CCCCC(=O)OCCC [dipropyl hexanedioate]
Details	vapor or sublimation pressure [kPa]
318.8 K	0.00173
321.7 K	0.00222
323.5 K	0.0026
327.4 K	0.00367
333.2 K	0.00602
336.1 K	0.00765
339.1 K	0.00972
342.1 K	0.0122
345.5 K	0.0152
348.3 K	0.0196
351.5 K	0.0253
354.2 K	0.0306
357.1 K	0.0373
361.2 K	0.0485
365.3 K	0.0639

CCCOC(=O)CCCC(=O)OCCC [pentanedioic acid, dipropyl ester]
Details	vapor or sublimation pressure [kPa]
313.3 K	0.00276
316.4 K	0.00359
318.5 K	0.00444
319.4 K	0.00478
322.5 K	0.00609
323.5 K	0.00637
325.4 K	0.00778
328.5 K	0.01
329.5 K	0.0109
331.4 K	0.0128
333.6 K	0.0149
336.4 K	0.0184
338.5 K	0.022
341.4 K	0.0271
343.6 K	0.031
346.4 K	0.0385
348.4 K	0.0432
350.5 K	0.0504
353.5 K	0.0628

CCOC(=O)C(=O)OCC [diethyl ethanedioate]
Details	vapor or sublimation pressure [kPa]
283.6 K	0.0164
288.5 K	0.0256
293.4 K	0.0392
298.3 K	0.0571
303.3 K	0.0814
308.4 K	0.1254
311.3 K	0.1509
313.5 K	0.175
316.4 K	0.2075
318.3 K	0.2434
321.4 K	0.2972
325.4 K	0.3834
329.5 K	0.4832
333.5 K	0.6275

CCCCOC(=O)CC(=O)OCCCC [dibutyl 1,3-propanedioate]
Details	vapor or sublimation pressure [kPa]
303.2 K	0.00138
308.3 K	0.00223
313.3 K	0.00366
318.3 K	0.00557
323.2 K	0.00878
325.1 K	0.0101
328.2 K	0.0131
330.2 K	0.0152
333.2 K	0.0193
335.2 K	0.0217
338.2 K	0.0267
340.2 K	0.0325
343.2 K	0.0407
345.2 K	0.0454
349.1 K	0.0586
353.1 K	0.0788
357.2 K	0.1022
361.2 K	0.1343
365.2 K	0.1672
369.2 K	0.2174

CCOC(=O)CCC(=O)OCC [diethyl butanedioate]
Details	vapor or sublimation pressure
290.2 K	0.00495 kPa
290.5 K	0.00504 kPa
293.5 K	0.00678 kPa
296.4 K	0.00861 kPa
301.4 K	0.0134 kPa
306.4 K	0.0208 kPa
311.4 K	0.0313 kPa
313.4 K	0.035 kPa
316.4 K	0.0455 kPa
318.4 K	0.0503 kPa
321.4 K	0.0661 kPa
323.5 K	0.0777 kPa
326.5 K	0.0941 kPa and 0.0963 kPa
328.5 K	0.1125 kPa
331.4 K	0.133 kPa
331.6 K	0.1351 kPa
333.6 K	0.1517 kPa
336.5 K	0.1864 kPa
339.4 K	0.2221 kPa
342.4 K	0.2658 kPa
345.5 K	0.3425 kPa

CCCCOC(=O)CCC(=O)OCCCC [butanedioic acid, dibutyl ester]
Details	vapor or sublimation pressure [kPa]
313.3 K	0.00132
316.2 K	0.0017
318.3 K	0.00205
320.2 K	0.00248
323.2 K	0.00325
325.2 K	0.00383
328.2 K	0.00489
330.2 K	0.00577
333.2 K	0.00743
335.4 K	0.00877
338.2 K	0.011
340.1 K	0.0121
343.2 K	0.0164
346.2 K	0.0197
349.2 K	0.0247
352.1 K	0.0319
355.1 K	0.0387
358.2 K	0.0473

CCCCOC(=O)C(=O)OCCCC [di-n-butyl oxalate]
Details	vapor or sublimation pressure
291.4 K	0.00087 kPa
293.4 K	0.0011 kPa
295.7 K	0.00143 kPa
298.8 K	0.00182 kPa
300.4 K	0.00209 kPa
302.3 K	0.00249 kPa
302.8 K	0.00276 kPa
303.3 K	0.00283 kPa
305.2 K	0.0034 kPa
305.3 K	0.00334 kPa
308.2 K	0.00446 kPa
308.3 K	0.00433 kPa
308.4 K	0.00448 kPa
311.3 K	0.00565 kPa
312.3 K	0.00624 kPa
313.2 K	0.0066 kPa
314.3 K	0.00737 kPa
315.5 K	0.00855 kPa
317.4 K	0.00937 kPa
317.8 K	0.0105 kPa
318.2 K	0.0105 kPa
319.9 K	0.0124 kPa
320.2 K	0.0115 kPa
322.5 K	0.0149 kPa
323.2 K	0.0159 kPa
323.4 K	0.0151 kPa
325.3 K	0.0176 kPa and 0.018 kPa
326.4 K	0.0193 kPa
327.5 K	0.0215 kPa
328.2 K	0.0223 kPa
328.5 K	0.0226 kPa
330.3 K	0.0254 kPa
331.1 K	0.0289 kPa
331.4 K	0.0292 kPa
333.2 K	0.0339 kPa
333.5 K	0.0346 kPa and 0.0333 kPa
335.2 K	0.0375 kPa
336.3 K	0.0414 kPa
337 K	0.0434 kPa
338.1 K	0.0475 kPa
338.6 K	0.0475 kPa
340.2 K	0.0543 kPa
340.8 K	0.0586 kPa
341.4 K	0.0568 kPa
343.2 K	0.0651 kPa
343.4 K	0.0693 kPa
343.5 K	0.0645 kPa
345.2 K	0.0741 kPa
348.3 K	0.0962 kPa
351.2 K	0.1137 kPa
353.1 K	0.1332 kPa
358.2 K	0.1811 kPa

CCCCOC(=O)CCCCC(=O)OCCCC [dibutyl hexanedioate]
Details	vapor or sublimation pressure [kPa]
313.2 K	0.00018
318.2 K	0.0003
323.2 K	0.00048
328.2 K	0.00079
333.3 K	0.00127
338.4 K	0.00202
343.1 K	0.00304
348.2 K	0.00467
353.2 K	0.00705
358.2 K	0.0102
363.2 K	0.0143
368.2 K	0.0201
373.2 K	0.0285

CCCOC(=O)CCC(=O)OCCC [butanedioic acid, dipropyl ester]
Details	vapor or sublimation pressure [kPa]
308.3 K	0.00487
312.4 K	0.00685
316.4 K	0.00936
318.5 K	0.0111
321.5 K	0.0139
323.5 K	0.0163
326.4 K	0.0209
328.6 K	0.0252
331.3 K	0.0303
333.4 K	0.0362
336.5 K	0.0443
338.5 K	0.0509
341.5 K	0.0625
343.5 K	0.0723

CCCOC(=O)CC(=O)OCCC [dipropyl 1,3-propanedioate]
Details	vapor or sublimation pressure [kPa]
293.3 K	0.00356
298.3 K	0.00582
299.4 K	0.00652
303.2 K	0.00897
307.3 K	0.0129
308.2 K	0.0135
311.3 K	0.0178
313.3 K	0.0199
315.3 K	0.0245
318.5 K	0.0296
319.4 K	0.0332
323.4 K	0.0426
328.5 K	0.0622
333.5 K	0.089
336.4 K	0.1095
338.5 K	0.13

CCOC(=O)CC(=O)OCC [diethyl 1,3-propanedioate]
Details	vapor or sublimation pressure [kPa]
283.8 K	0.00689
286.2 K	0.00858
289.2 K	0.0115
292.3 K	0.015
295.2 K	0.0193
298.2 K	0.0251
301.3 K	0.0321
304.2 K	0.0405
304.7 K	0.0428
307.3 K	0.0513
310.2 K	0.0646
313.3 K	0.0814
316.3 K	0.1005

CCOC(=O)CCCCC(=O)OCC [diethyl hexanedioate]
Details	vapor or sublimation pressure [kPa]
303.5 K	0.0022
308.2 K	0.00343
313.3 K	0.00523
318.2 K	0.00793
323.1 K	0.0118
328.2 K	0.0185
329.6 K	0.0209
333.2 K	0.0273
335.2 K	0.0323
338.2 K	0.039
340.2 K	0.0462
343.2 K	0.0561
346.2 K	0.0698
349.1 K	0.0851
352.2 K	0.1061
